Test results taken from patent publication US20230248670A1, “APPLICATION OF PREPARATION FOR INHIBITING CAMK2G EXPRESSION IN PREPARATION OF MEDICINE FOR TREATING PSORIASIS” (priority 2022, published 2023).

How the values were obtained:
[1] = tested on: IMQ-induced psoriasis mice; experiment: IMQ-induced psoriasis mouse model with subcutaneous injection of NE, SAL or ICI; format: in vivo; conditions: for activation of p38 in IMQ-induced skin: SAL or ICI treatment, mouse skin; for IMQ-induced psoriasis-like phenotype (dorsal skin thickness, erythema, scaling) / proportion of IL-17A+ γδ T cells (γδ T-17 cells) in mouse skin: subcutaneous injection; for IMQ-induced psoriasis-like phenotype (dorsal skin thickness, erythema, scaling): IMQ-induced mice, vs control group; for proportion of IL-17A+ γδ T cells (γδ T-17 cells) in mouse skin: IMQ-induced mouse skin, flow cytometry
Description: In the embodiment of the disclosure, establishment steps of IMQ-induced Camk2g^-/- psoriasis mouse model include steps as follows. 7-week-old wild type mice (WT) (n = 5) or Camk2g^-/- mice (n = 5) are taken to shave back hair, and the exposed skin area is 2 centimeters (cm) × 2 cm, […] (mg) of IMQ cream or control agent Vaseline (VAS) are evenly applied to the exposed skin of mice for 4 consecutive days, psoriasis area severity index (PASI) score is performed every day, and the mice are sacrificed on the 5th day to take the skin, spleen and blood for testing.
In the embodiment of the disclosure, the skin tissue is fixed with 10% formalin, embedded in paraffin, cut into 4 micrometers (µm) sections for hematoxylin and eosin (H&E) staining.
In the embodiment of the disclosure, the inflammation scoring method of the mouse model is an objective scoring system developed on the basis of clinical PASI score. Scores of erythema, scaling and thickening ranged from 0 to 4:0: none; 1: mild, 2: moderate, 3: obvious, and 4: very significant. The degree of erythema is scored using a scoring scaling based on erythema intensity. A cumulative score (i.e., erythema + scaling + thickening) can be used as an indicator of the severity of inflammation (the cumulative score is in a range of 0-12).
In the embodiment of the disclosure, separation steps of skin immunocytes include steps as follows. the skin is fully chopped and then digested in digestive enzymes at 37° C. and 225 revolutions per minute (rpm) for 1.5 hours to thereby obtain an initial digestion solution. The digestive enzymes are formulated as follows: 1.2 grams (g) bovine serum albumin (BSA) (Biofoxx, 4240GR100), 0.12 g type I collagenase (Sigma, C0130-5G), 0.06 g type IV collagenase (Worthington, LS004189) and 0.06 g hyaluronidase (Sigma, H3506) -5G) are dissolved in 30 milliliters (mL) dulbecco’s modified eagle medium (DMEM) (HyClone, SH30022.01). 150 microliters (µL) of 1 microgram per milliliter (mg/mL) deoxyribonuclease (DNase) (Yuanye, S10073) is added in the initial digestion solution and the digestion is continued for 30 minutes to obtain a first cell suspension. After the digestion, the first cell suspension is filtered through a 70-µm filter. The filtered first cell suspension is centrifuged at 4° C. and 2000 rpm for 8 minutes, and first cell particles are collected after removing a first supernatant. The first cell particles are suspended in 6 mL of 40% lymphocyte isolation solution (5.4 mL Percoll (GE Healthcare, 17-0891-09) +520 µL Hank’s Solution (Beyotime, C0219) +44 µL 2×Hepes Buffer (Solarbio, H1080-100) +[…] phosphate-buffered saline (PBS)) of a centrifuge tube. Then, 6 mL of 80% lymphocyte isolation solution (5.4 mL Percoll+520 µL Hank’s Solution+44 µL 2×Hepes Buffer+1.491 mL PBS) is slowly added to the tube wall to obtain a first mixed solution, and the first mixed solution is clearly separated into two layers. The first mixed solution is centrifuged at 4° C. and 2000 rpm for 20 minutes, and the centrifugal lifting force is kept to a minimum. The liquid in the centrifuge tube after centrifugation can be divided into four layers. From top to bottom of the centrifuge tube, there are 40% lymphocyte isolation solution, lymphocytes, 80% lymphocyte isolation solution and cell fragments. Lymphocytes are carefully transferred into a new centrifuge tube and thoroughly washed with 10 mL PBS to obtain a second mixed solution. The second mixed solution is centrifuged at 4° C. and 2000 rpm for 8 minutes to obtain a second cell suspension, and second cell particles are collected after removing a second supernatant. Then, 1 µL of each cell membrane surface antibody is added to 50 µL of PBS, mixed with the second cell particles, and incubated at room temperature for 30 minutes in the dark. […]

[2] = tested on: Jurkat T cells; experiment: MAPK (p38, ERK, JNK) activation in PMA/ionomycin activated Jurkat T cells; format: cell-based, human; conditions: Jurkat T cells activated by PMA/ionomycin for 2 hours, treatment for 4 hours
Source text: This is consistent with the existing literature that p38 phosphorylation promotes the proliferation of Th17 cells in autoimmune arthritis. P38 MAPK signaling pathway plays a role in the activation and differentiation of T cells in the peripheral blood immune system.

[3] = tested on: Jurkat cells; experiment: Proinflammatory cytokine production in PMA/ionomycin co-stimulated Jurkat cells; format: cell-based, human; conditions: co-stimulation with PMA and ionomycin
Source text: In the embodiments of the disclosure, “Phorbol 12-myristate 13-acetate (PMA)” and “ionomycin (Ion)” are used to activate Jurkat cells, and only activated Jurkat cells can highly express inflammatory factors.
In the embodiment of the disclosure, in order to in order to study how ADRB2 regulates the inflammatory response of γδ T cells, Jurkat cells (a kind of immortal human T lymphocytes) are stimulated with ADRB2 agonist SAL and antagonist ICI 118551 respectively.

[4] = tested on: PMA-activated HL-60 cells; experiment: NETs protein release in PMA-activated HL-60 cells; format: cell-based
Source text: The existing literature discloses that although T cells producing IL-17 have long been the mainstream of psoriasis immunology research, neutrophils, as the largest number of cells in the innate immune system, have attracted much attention in the occurrence and development of psoriasis. Activated neutrophils produce enhanced respiratory burst, accompanied by the production of reactive oxygen species (ROS), ultimately leading to the development of NETosis. NETosis is a form of neutrophil death different from apoptosis and necrosis. NETosis is accompanied by the formation of NETs. NETs release proteases such as myeloperoxidase (MPO), neutrophil elastase (NE) and peptidyl arginine deiminase 4 (PAD4), which are involved in the hydrolysis and activation of inflammatory mediators and the formation of NETs of psoriasis autoantigens. HL60 is a bone marrow cell line with the potential to differentiate into neutrophils stimulated by dimethyl sulfoxide (DMSO). CAMK2γ is the member of CAMK family with the highest expression level and activity in HL-60 cells.
In the embodiment of the disclosure, in order to study whether CAMK2γ is involved in the formation of NETs in activated neutrophils, two kinds of CaMKII inhibitors, CaMKII-IN1 and KN93, are used.

[5] = tested on: IMQ-induced psoriasis mice; experiment: IMQ-induced psoriasis mouse model with subcutaneous injection of NE, SAL or ICI; format: in vivo; conditions: after injection of NE
[6] = tested on: skin sympathetic nerves of IMQ-induced mice; experiment: Local skin sympathectomy by intradermal 6-OHDA before IMQ treatment; format: in vivo, mouse
Description: In an embodiment of the disclosure, in order to observe the effect of local sympathectomy on psoriasis mice, mice are injected with 6-OHDA intradermally before IMQ treatment (FIG. 25).

[7] = tested on: IMQ-induced mice; conditions: intraperitoneal injection; cited from earlier work
[8] = tested on: SH-SY5Y cells; experiment: 6-OHDA induced SH-SY5Y cell injury (qPCR, western blot); format: cell-based, human
Source text: In an embodiment of the disclosure, to further study whether CAMK2γ directly affects the expression of TH in sympathetic nerves, RNA interference (RNAi) method is used to knock down CAMK2G in human neuroblastoma cell (SH-SY5Y). SH-SY5Y is a poorly differentiated tumor cell with high similarity in morphology, physiology and biochemical function to dopaminergic neurons in real-time in vivo, and can constitutively express TH.

[9] = tested on: γδ T cell deficient-mice (Tcrd^-/-); experiment: SAL subcutaneous injection in γδ T cell deficient-mice (Tcrd-/-); format: in vivo, mouse
Source text: SAL has no effect on the ability of αβ T cells to produce IL-17 (FIG. 50). Combined with the previous results, NE in the skin mainly derives from the skin sympathetic nerves and mediates the release of IL-17 from γδ T cells instead of αβ T cells through the NE-ADRB2 signaling pathway.

[10] = intradermal 6-OHDA, sympathetic denervated skin

For `Cc1ccc(OCC(O)C(C)NC(C)C)c2c1CCC2` (stereo not drawn) [ICI, ICI 118551], the “activation of p38 in IMQ-induced skin” value [1] was “showed inhibitory effect”, the “IMQ-induced psoriasis-like phenotype (dorsal skin thickness, erythema, scaling)” value [1] was “psoriasis phenotype of mice injected with ICI is reduced” and the “proportion of IL-17A+ γδ T cells (γδ T-17 cells) in mouse skin” value (shortened to “proportion of IL-17A+ γδ T cells”) [1] was “reduces a proportion of skin γδ T-17 cells”. For the same molecule, the “activation of ERK and JNK” value [2] was “does not affect the activation”, the p38 phosphorylation [2] was “inhibited” and the “production of T-cell proinflammatory cytokines IL-17A, TNF-α and IL-22” value [3] was “reduces the production of the T-cell proinflammatory cytokines”.
With `COc1ccc(S(=O)(=O)N(CCO)c2ccccc2CN(C)C/C=C/c2ccc(Cl)cc2)cc1` [KN93] the “release of MPO, elastase and PAD4” value [4] was “inhibits the release of MPO, elastase and PAD4”.
In the case of `NC[C@H](O)c1ccc(O)c(O)c1` [NE, norepinephrine], the “IL-17A+ γδ T cells in CAMK2G-deleted mice” value ([1]; NE administration, IMQ-induced Camk2g-/- mice) is reported as “counteracts the decrease of IL-17A+ γδ T cells caused by CAMK2G deletion”, the “p38 phosphorylation in skin of Camk2g-/- mice” value ([1]; NE injection, compared to IMQ-treated WT mice) is reported as “increases and restores p38 phosphorylation” and the “IMQ-induced psoriasis-like phenotype (dorsal skin thickness, erythema, scaling)” value [1] is reported as “aggravates the IMQ-induced psoriasis-like phenotype”. The “proportion of IL-17A+ γδ T cells” value [1] was “increases a proportion of IL-17A+ γδ T cells in mouse skin” and the “difference in skin thickness between WT and Camk2g-/- mice” value [5] was “disappeared”.
With `Cc1c(Cl)cccc1S(=O)(=O)Nc1nc(NCCc2ccccc2)nc2c1CN(Cc1ccccc1)CC2` [CaMKII-IN1] the “release of MPO, elastase and PAD4” value [4] was “inhibits the release of MPO, elastase and PAD4”.
With `CC(C)Cn1cnc2c(N)nc3ccccc3c21` [IMQ, imiquimod] the “p38 phosphorylation in mouse skin” value ([1]; IMQ treatment) was “p38 phosphorylation is activated by IMQ”, the “proportion of β2-AR+ T cells in mouse skin” value ([1]; IMQ treatment) was “increases a proportion of β2-AR+ T cells in mouse skin” and the “TH phosphorylation in mouse skin” value ([1]; IMQ treatment, western blot) was “significant upregulation of TH phosphorylation”.
With `NCCc1cc(O)c(O)cc1O` [6-OHDA, 6-hydroxydopamine] the “TH and pTH in skin” value ([6]; intradermal 6-OHDA before IMQ, immunofluorescence and western blot) was “significant reduction of TH and pTH”, the IMQ-induced psoriasis-like phenotype ([6]; intradermal 6-OHDA, skin sympathetic denervation) was “reduces IMQ-induced psoriasis-like phenotype in mice” and the “IL-17A+ γδ T cells in skin” value [6, 10] was “IL-17A+ γδ T cells are reduced”. The NE in skin [6, 10] was “reduction of NE”, the IMQ-induced ear swelling [7] was “can reduce IMQ-induced ear swelling” and the “production of IL-17” value [7] was “does not affect the production of IL-17”. The CAMK2G expression ([8]; qPCR) was “no significant effect on CAMK2G expression”, the “intracellular TH transcription level” value ([8]; qPCR) was “decrease of intracellular TH transcription level” and the “phosphorylation levels of other members of the CaMKII family” value ([8]; western blot) was “may lead to increased phosphorylation levels of other members of the CaMKII family”. For the same molecule, the “total protein level and pTH level of CAMK2γ” value ([8]; western blot) was “reduces the total protein level and pTH level of CAMK2γ”.
For `OCc1cc(C(O)CNCCCCCCOCCCCc2ccccc2)ccc1O` (stereo not drawn) [SAL, salmeterol xinafoate], the “activation of p38 in IMQ-induced skin” value [1] was “enhanced the activation of p38”, the “IMQ-induced psoriasis-like phenotype (dorsal skin thickness, erythema, scaling)” value [1] was “psoriasis phenotype of mice injected with SAL increased” and the “proportion of IL-17A+ γδ T cells” value [1] was “promotes IL-17A production by γδ T cells”. For the same molecule, the p38 phosphorylation [2] was “significantly increased”, the “ability of αβ T cells to produce IL-17” value [9] was “no effect” and the “psoriasis phenotype and inflammatory infiltration” value [9] was “promotion of psoriasis phenotype and inflammatory infiltration by SAL is counteracted by the lack of γδ T cells”. For the same molecule, the “production of T-cell proinflammatory cytokines IL-17A, TNF-α and IL-22” value [3] was “increase the production of T-cell proinflammatory cytokines IL-17A, TNF-α and IL-22”.
